Source: patent US20220106304A1, “Transcription Factor BRN2 Inhibitory Compounds as Therapeutics and Methods for Their Use” (The University of British Columbia, priority 2018, published 2022)

molecular target: T1, BRN2 (Homo sapiens, UniProt P20265); experiment: cell-based; details: read-out: % BRN2 Inhibition (10 μM), 10 μM compound, 24 hours, 42D^ENZR cells stably expressing BRN2-luciferase reporter; negative = activation
T1 sequence (P20265 1-443): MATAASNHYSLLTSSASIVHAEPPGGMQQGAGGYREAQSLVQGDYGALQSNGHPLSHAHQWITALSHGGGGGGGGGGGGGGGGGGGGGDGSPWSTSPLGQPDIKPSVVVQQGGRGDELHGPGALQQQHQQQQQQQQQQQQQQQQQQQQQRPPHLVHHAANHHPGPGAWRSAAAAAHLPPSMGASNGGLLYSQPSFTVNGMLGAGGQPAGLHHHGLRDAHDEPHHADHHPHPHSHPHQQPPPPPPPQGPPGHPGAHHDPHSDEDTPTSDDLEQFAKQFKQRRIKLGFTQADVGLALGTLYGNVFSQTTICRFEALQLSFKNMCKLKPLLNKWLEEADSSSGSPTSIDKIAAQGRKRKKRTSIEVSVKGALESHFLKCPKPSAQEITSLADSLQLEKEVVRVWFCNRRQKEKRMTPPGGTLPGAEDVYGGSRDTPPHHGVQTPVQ
Description: Decreased expression of luciferase protein is validated via western blot to confirm downregulation and avoid false positive molecules that inhibit luciferase protein activity and not BRN2-drive luciferase expression. Molecules are prioritized by their inhibition potency to measure direct interaction with BRN2 in Step 2.
In TABLES 1 and 2, when a single value is mentioned in columns Met Stab % and T½, it refers to compound's stability in MLM and when two values are given they represent HLM/MLM. There is a distinction in TABLES 1 and 2 difference between “Active” and “Specific” or “Specificity”. Compounds are first tested to quantify inhibition of BRN2 transcriptional activity in a luciferase assay to determine “Activity” at […] and 30 μM concentrations. […] Where data is not available “na” is inserted. Where data has yet to be calculated the notation “nc” is used.

SMILES | inhibition at 10 µM [%]
Cn1c(-c2ccc(-c3cccc(C#N)c3)o2)nc2ccccc21 [VPC-18-63, 3-(5-(1-methyl-1H-benzo[d]imidazol-2-yl)furan-2-yl)benzonitrile] | 72
FC(F)(F)c1ccc2cc(-c3csc(N4CCCC4)n3)oc2c1 [VPC-18-72, 2-(pyrrolidin-1-yl)-4-(6-(trifluoromethyl)benzofuran-2-yl)thiazole] | 45.9
FC(F)(F)c1ccc2cc(-c3csc(NC4CC4)n3)oc2c1 [VPC-18-73, N-cyclopropyl-4-(6-(trifluoromethyl)benzofuran-2-yl)thiazol-2-amine] | 78.8
Cc1c(-c2ccc(-c3ccccc3)o2)oc2ccccc12 [VPC-18-74, 3-methyl-2-(5-phenylfuran-2-yl)benzofuran] | 96.7
c1coc(-c2nc(-c3cc4ncccc4o3)cs2)c1 [VPC-18-75, 2-(2-(furan-2-yl)thiazol-4-yl)furo[3,2-b]pyridine] | 71.9
FC(F)(F)c1ccc2nc(-c3csc(C4=CCOCC4)n3)oc2c1 [VPC-18-77] | 11.3
FC(F)(F)c1ccc2cc(-c3csc(N4CCOCC4)n3)oc2c1 [VPC-18-78, 4-(4-(6-(trifluoromethyl)benzofuran-2-yl)thiazol-2-yl)morpholine] | 43.6
N#Cc1ccc2cc(-c3csc(-c4ccco4)n3)oc2c1 [VPC-18-80] | 42
Cn1c(-c2ccc(C3CCNCC3)o2)nc2ccc(C(F)(F)F)cc21 [VPC-18-82] | 11
FC(F)(F)c1ccc2cc(-c3csc(NCC4CC4)n3)oc2c1 [VPC-18-86] | 32
FC(F)(F)c1ccc2nc(-c3ccc(-c4ccccc4)o3)[nH]c2c1 [VPC-18-87] | 85
N#Cc1c(-c2csc(-c3ccco3)n2)oc2ccccc12 [VPC-18-88, 2-(2-(furan-2-yl)thiazol-4-yl)benzofuran-3-carbonitrile] | 76
FC(F)(F)c1ccc2cc(-c3csc(C4CCNCC4)n3)oc2c1 [VPC-18-89, 2-(piperidin-4-yl)-4-(6-(trifluoromethyl)benzofuran-2-yl)thiazole] | 65
Clc1ccc2cc(-c3csc(N4CC5CC4CO5)n3)oc2c1 (centres unmarked) [VPC-18-91, 5-(4-(6-chlorobenzofuran-2-yl)thiazol-2-yl)-2-oxa-5-azabicyclo[2.2.1]heptane] | 70

same assay, conditions: read-out: % BRN2 Inhibition (30 μM), 30 μM compound, 24 hours, 42D^ENZR cells stably expressing BRN2-luciferase reporter; negative = activation

SMILES | inhibition at 30 µM [%]
Cn1c(-c2ccc(-c3cccc(C#N)c3)o2)nc2ccccc21 [VPC-18-63, 3-(5-(1-methyl-1H-benzo[d]imidazol-2-yl)furan-2-yl)benzonitrile] | 94
FC(F)(F)c1ccc2cc(-c3csc(N4CCCC4)n3)oc2c1 [VPC-18-72, 2-(pyrrolidin-1-yl)-4-(6-(trifluoromethyl)benzofuran-2-yl)thiazole] | 62.4
FC(F)(F)c1ccc2cc(-c3csc(NC4CC4)n3)oc2c1 [VPC-18-73, N-cyclopropyl-4-(6-(trifluoromethyl)benzofuran-2-yl)thiazol-2-amine] | 95.7
Cc1c(-c2ccc(-c3ccccc3)o2)oc2ccccc12 [VPC-18-74, 3-methyl-2-(5-phenylfuran-2-yl)benzofuran] | 99
c1coc(-c2nc(-c3cc4ncccc4o3)cs2)c1 [VPC-18-75, 2-(2-(furan-2-yl)thiazol-4-yl)furo[3,2-b]pyridine] | 91.9
FC(F)(F)c1ccc2nc(-c3csc(C4=CCOCC4)n3)oc2c1 [VPC-18-77] | 63.4
FC(F)(F)c1ccc2cc(-c3csc(N4CCOCC4)n3)oc2c1 [VPC-18-78, 4-(4-(6-(trifluoromethyl)benzofuran-2-yl)thiazol-2-yl)morpholine] | 79.6
N#Cc1ccc2cc(-c3csc(-c4ccco4)n3)oc2c1 [VPC-18-80] | 44
Cn1c(-c2ccc(C3CCNCC3)o2)nc2ccc(C(F)(F)F)cc21 [VPC-18-82] | 50
FC(F)(F)c1ccc2cc(-c3csc(NCC4CC4)n3)oc2c1 [VPC-18-86] | 92
FC(F)(F)c1ccc2nc(-c3ccc(-c4ccccc4)o3)[nH]c2c1 [VPC-18-87] | 87
N#Cc1c(-c2csc(-c3ccco3)n2)oc2ccccc12 [VPC-18-88, 2-(2-(furan-2-yl)thiazol-4-yl)benzofuran-3-carbonitrile] | 96
FC(F)(F)c1ccc2cc(-c3csc(C4CCNCC4)n3)oc2c1 [VPC-18-89, 2-(piperidin-4-yl)-4-(6-(trifluoromethyl)benzofuran-2-yl)thiazole] | 98
Clc1ccc2cc(-c3csc(N4CC5CC4CO5)n3)oc2c1 (centres unmarked) [VPC-18-91, 5-(4-(6-chlorobenzofuran-2-yl)thiazol-2-yl)-2-oxa-5-azabicyclo[2.2.1]heptane] | 96

system: not listed separately; experiment: Liver microsome metabolic stability, MLM; assay type: in vitro ADME; details: MLM (single value or second of two), percent remaining at 60 min, 1 μM compound, 0.25 mg/mL protein, 1 mM NADPH
Description: Potassium phosphate buffer (Kphos) was prepared by adding 0.647 g potassium phosphate monobasic (KH2PO4) and 3.527 g potassium phosphate dibasic ([…]) to 400 mL of Milli-Q water. pH of the buffer was adjusted to 7.4 and volume was made up to 500 mL.
Microsomes (20 mg/mL) were diluted in KH2PO4 buffer to prepare a concentration of 0.357 mg/mL.
Stock solutions of BRN2 inhibitors were prepared in DMSO at a concentration of 1 mM
A stock solution of 3.33 mM NADPH (3.33×) was prepared by dissolving appropriate amount of NADPH in KH2PO4 buffer.
Total Incubation volume: 100 μL
Compound concentration: 1 μM
Protein Concentration: 0.25 mg/mL
An 1120 μL aliquot of Kphos buffer (50 mM, pH 7.4) containing liver microsomes (0.357 mg/mL) were added to individual 2 mL tubes (final concentration 0.25 mg/mL). Test compounds (1 mM) and positive controls were directly spiked into respective tubes to prepare a concentration of 1.428 μM (final concentration 1 μM). From the above mix, 70 μL was added to individual wells of 96 well reaction plates and pre-incubated in a 37° C. water bath for 5 min. All the reactions were initiated by adding 30 μL of 3.33 mM NADPH (final concentration 1 mM). Reactions without NADPH and buffer controls (minus NADPH) at 0 min and 60 min were also incubated to rule out non-NADPH metabolism or chemical instability in the incubation buffer. All reactions were terminated using 100 μL of ice-cold acetonitrile containing internal standard at 0, 5, 15, 30 and 60 min. The plates were centrifuged at 4000 RPM for 15 min and 100 μL aliquots were submitted for analysis by LC-MS/MS.
Samples were monitored for parent compounds disappearance in MRM mode using LC-MS/MS.
The percent remaining of test compounds and positive control in each sample was determined by considering peak area ratio in the 0 minute sample as 100%. The Half-life of compounds in microsomes is calculated by formula:
Half-life (t½) (min)=0.693/k, where k is gradient of line determined from plot of peak area ratio (compound peak area/internal standard peak area) against time.
In vitro intrinsic clearance (CL'int) (units in mL/min/kg) was calculated using the formula.
[formula] • For liver microsomes, scaling factor used was 45 mg microsomal protein per gm liver. • Indicates liver weight (gm) which varies species wise. For mice the liver weights are 90 gm.
Where data is not available “na” is inserted.

SMILES | Met Stab % (60 mins HLM/MLM) [%]
Cn1c(-c2ccc(-c3cccc(C#N)c3)o2)nc2ccccc21 [VPC-18-63, 3-(5-(1-methyl-1H-benzo[d]imidazol-2-yl)furan-2-yl)benzonitrile] | 0
FC(F)(F)c1ccc2cc(-c3csc(N4CCCC4)n3)oc2c1 [VPC-18-72, 2-(pyrrolidin-1-yl)-4-(6-(trifluoromethyl)benzofuran-2-yl)thiazole] | 8
FC(F)(F)c1ccc2cc(-c3csc(NC4CC4)n3)oc2c1 [VPC-18-73, N-cyclopropyl-4-(6-(trifluoromethyl)benzofuran-2-yl)thiazol-2-amine] | 2
Cc1c(-c2ccc(-c3ccccc3)o2)oc2ccccc12 [VPC-18-74, 3-methyl-2-(5-phenylfuran-2-yl)benzofuran] | 2
c1coc(-c2nc(-c3cc4ncccc4o3)cs2)c1 [VPC-18-75, 2-(2-(furan-2-yl)thiazol-4-yl)furo[3,2-b]pyridine] | 0
FC(F)(F)c1ccc2nc(-c3csc(C4=CCOCC4)n3)oc2c1 [VPC-18-77] | 24
FC(F)(F)c1ccc2cc(-c3csc(N4CCOCC4)n3)oc2c1 [VPC-18-78, 4-(4-(6-(trifluoromethyl)benzofuran-2-yl)thiazol-2-yl)morpholine] | 25
N#Cc1ccc2cc(-c3csc(-c4ccco4)n3)oc2c1 [VPC-18-80] | 0
Cn1c(-c2ccc(C3CCNCC3)o2)nc2ccc(C(F)(F)F)cc21 [VPC-18-82] | 100
FC(F)(F)c1ccc2cc(-c3csc(NCC4CC4)n3)oc2c1 [VPC-18-86] | 5
FC(F)(F)c1ccc2nc(-c3ccc(-c4ccccc4)o3)[nH]c2c1 [VPC-18-87] | 37
N#Cc1c(-c2csc(-c3ccco3)n2)oc2ccccc12 [VPC-18-88, 2-(2-(furan-2-yl)thiazol-4-yl)benzofuran-3-carbonitrile] | 0
FC(F)(F)c1ccc2cc(-c3csc(C4CCNCC4)n3)oc2c1 [VPC-18-89, 2-(piperidin-4-yl)-4-(6-(trifluoromethyl)benzofuran-2-yl)thiazole] | 65
Clc1ccc2cc(-c3csc(N4CC5CC4CO5)n3)oc2c1 (centres unmarked) [VPC-18-91, 5-(4-(6-chlorobenzofuran-2-yl)thiazol-2-yl)-2-oxa-5-azabicyclo[2.2.1]heptane] | 2

same assay, conditions: mouse, liver microsomes, pH 7.4; MLM (single value or second of two), 1 μM compound, 0.25 mg/mL protein; read-out: T1/2 in (mins HLM/MLM)

SMILES | half-life at 1 µM [min]
FC(F)(F)c1ccc2cc(-c3csc(N4CCCC4)n3)oc2c1 [VPC-18-72, 2-(pyrrolidin-1-yl)-4-(6-(trifluoromethyl)benzofuran-2-yl)thiazole] | 18
FC(F)(F)c1ccc2cc(-c3csc(NC4CC4)n3)oc2c1 [VPC-18-73, N-cyclopropyl-4-(6-(trifluoromethyl)benzofuran-2-yl)thiazol-2-amine] | 11
Cc1c(-c2ccc(-c3ccccc3)o2)oc2ccccc12 [VPC-18-74, 3-methyl-2-(5-phenylfuran-2-yl)benzofuran] | 11
FC(F)(F)c1ccc2nc(-c3csc(C4=CCOCC4)n3)oc2c1 [VPC-18-77] | 29
FC(F)(F)c1ccc2cc(-c3csc(N4CCOCC4)n3)oc2c1 [VPC-18-78, 4-(4-(6-(trifluoromethyl)benzofuran-2-yl)thiazol-2-yl)morpholine] | 30
Cn1c(-c2ccc(C3CCNCC3)o2)nc2ccc(C(F)(F)F)cc21 [VPC-18-82] | > 60
FC(F)(F)c1ccc2cc(-c3csc(NCC4CC4)n3)oc2c1 [VPC-18-86] | 13
FC(F)(F)c1ccc2nc(-c3ccc(-c4ccccc4)o3)[nH]c2c1 [VPC-18-87] | 40
N#Cc1c(-c2csc(-c3ccco3)n2)oc2ccccc12 [VPC-18-88, 2-(2-(furan-2-yl)thiazol-4-yl)benzofuran-3-carbonitrile] | 9
FC(F)(F)c1ccc2cc(-c3csc(C4CCNCC4)n3)oc2c1 [VPC-18-89, 2-(piperidin-4-yl)-4-(6-(trifluoromethyl)benzofuran-2-yl)thiazole] | > 60
Clc1ccc2cc(-c3csc(N4CC5CC4CO5)n3)oc2c1 (centres unmarked) [VPC-18-91, 5-(4-(6-chlorobenzofuran-2-yl)thiazol-2-yl)-2-oxa-5-azabicyclo[2.2.1]heptane] | 11
